Measured values: patent publication US20150050410A1, “COMPOUNDS, COMPOSITIONS, AND METHODS FOR MODULATING SWEET TASTE” (Chromocell Corporation, priority 2013, published 2015)

Assays:
Format in all cases: in vivo
[1] = tested on: perception of the sweet taste of an aqueous solution of sweetener in humans; assay: Two-alternative forced choice "sip and spit" method (2AFC); details: for Fold increase in perceived sweetness: positive control conc. / test sample conc.
Description: The taste test panelists used in the Examples 1-3 were selected using a sensory acuity screening program. Candidate taste panelists were recruited, with prescreening and personal interviews, and were assessed and for their ability to detect, recognize and differentiate basic taste attributes or mixtures thereof as part of a standardized acuity test. This included basic tastes of sweet, sour, salty, bitter and umami, as well as having the capacity to focus on specific aspects of sensory character such as ranking the various tastes perceived and identifying the basic tastes presented at threshold levels.
The effect of the test compounds on the perception of the sweet taste of an aqueous solution of sweetener in humans was evaluated using a two-alternative forced choice “sip and spit” method (2AFC).
(§1) The aqueous sweetener solutions were prepared by adding, fructose, sucrose or glucose (by weight), to water to achieve the desired concentration.
Compounds were first prepared as a 500-fold concentrated stock solution in 100% ethanol. These concentrated stocks were then added to the aqueous sweetener solutions to result in a final ethanol concentration of 0.2%. The control (positive and negative) samples were also normalized to 0.2% ethanol. This level of ethanol was not seen to contribute any perceived sweetness.
The 2AFC test used for compound evaluation was a blind and randomized test where taste panelists (n=15) evaluate a pair of sweetener solutions at a time one sample contains aqueous sweetener solution plus compound (i.e. test) while the other contains aqueous sweetener solution at higher concentration without compound (i.e. positive control). Each test sample was compared against a positive control. For example, if the test sample contained 1× sweetener concentration with compound (e.g. 5% sucrose with compound), the positive control sample contained a 1.1× sweetener concentration (e.g. 5.5% sucrose without compound).
Panelists were instructed not to eat or drink (except water) for at least 1 h before the test. During the test, panelists were instructed to sip each sample, swirl it around their mouth and then expectorate. After tasting each sample in the pair, panelists were instructed to record the sample that is “sweeter” in taste. Panelists cleansed their palates by rinsing with water, eating a cracker and waiting for an interval of about 5 minutes. Each pair was tasted twice. All samples were tasted at ambient temperatures. Data were analyzed using binomial probabilities.
Approximate levels of sweetness enhancement in column 5 of Table 2 were calculated as follows:
Approximate levels of sweetness enhancement=Sweetener concentration of positive control surpassed by the test sample, divided by sweetener concentration for compound-containing sample (e.g. 1.15×=5.75% sucrose/5% sucrose).

[2] = tested on: perception of the sweet taste of an aqueous solution of sweetener in humans; assay: Ranking "sip and spit" assessment of sweetness perception (R index); details: test sample 5% sucrose; compound 10 ppm; vs negative control; R index >=60 = significantly different
Description: The effect of the test compounds on the perception of the sweet taste of an aqueous solution of sweetener in humans was evaluated using a ranking “sip and spit” method.
as §1
Compounds were first prepared as a 500-fold concentrated stock solution in 100% ethanol. These concentrated stocks were then added to the aqueous sweetener solutions to result in a final ethanol concentration of 0.2%. The control (positive and negative) samples were also normalized to 0.2% ethanol.
In the ranking test used for compound evaluation, taste panelists (n=15), rank samples in increasing order of sweetness. One set, comprising of 6 samples, was presented to each panelists at a given time and are asked to rank them in order of increasing sweetness.
Panelists were instructed not to eat or drink (except water) for at least 1 h before the test. During the test, panelists were instructed to sip each sample, swirl it around their mouth and then expectorate. After tasting each set, panelists were instructed to rank the 6 samples within the set from least sweet to most sweet. Where rank 1—is lowest in sweetness and rank 6—is highest in sweetness. Panelists cleansed their palates by rinsing with water, eating a cracker and waiting for an interval of 10 minutes. […]

[3] = tested on: perception of the sweet taste in humans; assay: Trained descriptive analysis (DA) panel, sweet attribute; details: 35 ppm; for compound effects beyond the additive effect of inherent sweetness: 4% fructose and 8% sucrose; for perceived sweetness compared to control sweetener solutions (FIG. 2): aqueous fructose and sucrose solutions at pH 3; for perceived sweetness compared to control sweetener solutions (FIG. 2) / perceived sweetness compared to control sweetener solutions (FIG. 1): ** p<0.01; for perceived sweetness compared to control sweetener solutions (FIG. 1): aqueous fructose and sucrose solutions at pH 7
Description: The effect of the test compounds on the perception of the sweet taste in an aqueous environment, in the absence or presence of carbohydrate sweeteners, was evaluated using a descriptive analysis methodology with a group of trained panelists, as follows.
Candidate panelists were recruited, with prescreening and personal interviews, and were assessed for their ability to detect, recognize and differentiate basic taste attributes or mixtures thereof as part of a standardized acuity test. These candidate panelists were also assessed for their innate ability to identify flavors, and to rank on intensity scales. Other senses such as smell and vision were also included as part of the assessment. Candidates also were screened for their ability to use the language to describe and articulate ideas.
Selected candidates proceeded to training as a group in three phases: (1) Lexicon development, (2) Concept alignment, and (3) Scaling descriptors. During lexicon development, panelists evaluated products appropriate for use in the study to generate and align on terms describing the flavor, taste, aromatic, trigeminal, and temporal attributes. During concept alignment, the panel evaluated the products mentioned above to clarify and confirm the attributes that were generated during lexicon development using reference standards that appropriately define each attribute; these are either physical references (e.g. sucrose solutions) or verbal descriptions (e.g. overall flavor). Product terms and concepts were validated during this portion of the study.
In the last phase, scaling descriptors, the panel participated in a series of exercises focused on ordering and ranking samples according to relative attribute intensity, measuring attribute intensity using a defined length of line scale. Whenever possible, different levels or concentration of references were used as anchors to facilitate use of the scale. Panelists were provided with blinded references at this stage to evaluate their understanding and perception of the scale.
The panel used in this example was trained to reference sweet attributes in an absolute manner, such that a particular concentration of sweetener is always measured by the panelists at the same point using a 15 cm line scale where each cm represents a 1% increase in sucrose to cover the range of 0% to 15% sucrose. For the rest of the attributes, the panel was trained using a hybrid approach between descriptive analysis methods (e.g. quantitative descriptive analysis, the sensory spectrum, etc.) well-known to those skilled in the art.
The trained panel was then used for a descriptive analysis assessment for Compounds 1, 2 and 3 in aqueous solutions at pH 3 and pH 7. Each of the three compounds was tested at 35 ppm in sucrose and fructose sweeteners. In addition, Compounds 1, 2 and 3 were also examined in water at pH 3 and pH 7 to assess for any inherent sweetness.
The aqueous sweetener solutions were prepared by adding, fructose or sucrose (by weight), to water to achieve the desired concentration. Aqueous sucrose solutions at pH 3 were buffered using a final concentration of 0.096% Citric Acid plus 0.036% Sodium Citrate while aqueous fructose solutions at pH 3 were buffered using a final concentration of 0.06% Citric Acid and 0.0225% Sodium Citrate.
Compounds were first prepared as a […] concentrated stock solution in 100% ethanol. These concentrated stocks were then added to the aqueous sweetener solutions to result in a final ethanol concentration of 0.2%. In addition to compounds, a solubilizing agent at a final concentration of 0.02% was added to the aqueous sweetener solutions. Control samples were also balanced with 0.2% ethanol and in certain cases 0.02% solubilizing agent.
Both control (aqueous sweetener solutions without compound) and variant (aqueous sweetener solutions with compound) samples were blinded and randomized (by sweetener and pH blocks). […]

[4] = test sample 4% fructose, positive control fructose, compound 20 ppm
[5] = test sample 4% fructose, compound 25 ppm
[6] = test sample 4% fructose, positive control fructose, compound 25 ppm

SMILES: COc1ccc(C2CC(=O)c3c(O)cc(OCCCS(=O)(=O)[O-])cc3O2)cc1O.[K+] (centres unmarked) [Compound 14, 3-((5-hydroxy-2-(3-hydroxy-4-methoxyphenyl)-4-oxochroman-7-yl)oxy)propane-1-sulfonic acid potassium salt]
- Fold increase in perceived sweetness ([1]; test sample 4% fructose, compound 20 ppm): >1.1X
- Sweetener Concentration of positive control surpassed by test sample [1, 4]: > 4.4%

SMILES: O=C1c2c(O)cc(O)cc2OC(c2ccc(O)c(O)c2)C1O (centres unmarked) [Compound 11, 2-(3,4-dihydroxyphenyl)-3,5,7-trihydroxychroman-4-one]
- R Index Score [2]: 64

SMILES: COc1ccc(C2CC(=O)c3c(O)cc(OCCCC(=O)O)cc3O2)cc1O (centres unmarked) [Compound 4, 4-((5-hydroxy-2-(3-hydroxy-4-methoxyphenyl)-4-oxochroman-7-yl)oxy)butanoic acid]
- Sweetener Concentration of positive control surpassed by test sample [1, 4]: > 4.4%

SMILES: COc1ccc(C2CC(=O)c3c(O)cc(F)cc3O2)cc1O (centres unmarked) [Compound 15, 7-fluoro-5-hydroxy-2-(3-hydroxy-4-methoxyphenyl)chroman-4-one]
- Sweetener Concentration of positive control surpassed by test sample [1, 4]: > 4.4%

SMILES: COc1ccc([C@H]2CC(=O)c3c(O)cccc3O2)cc1O (single isomer, unassigned) [Compound 3]
- Fold increase in perceived sweetness [1, 5]: >1.25X
- Sweetener Concentration of positive control surpassed by test sample [1, 6]: > 5%
- Fold increase in perceived sweetness ([1]; test sample 5% sucrose, compound 15 ppm): >1.20X
- Sweetener Concentration of positive control surpassed by test sample ([1]; test sample 5% sucrose, positive control sucrose, compound 15 ppm): > 6%
- Fold increase in perceived sweetness ([1]; test sample 6.5% glucose, compound 25 ppm): >1.20X
- Sweetener Concentration of positive control surpassed by test sample ([1]; test sample 6.5% glucose, positive control glucose, compound 25 ppm): > 7.8%
- compound effects beyond the additive effect of inherent sweetness ([3]; pH 3, Table 7 vs Table 5): super-additive effects
- compound effects beyond the additive effect of inherent sweetness ([3]; pH 7, Table 6 vs Table 4): super-additive effects
- perceived sweetness compared to control sweetener solutions (FIG. 2) [3]: significant increase in perceived sweetness
- perceived sweetness compared to control sweetener solutions (FIG. 1) [3]: significant increase in perceived sweetness

SMILES: COc1ccc([C@@H]2CC(=O)c3c(O)cccc3O2)cc1O (single isomer, unassigned) [Compound 2]
- Fold increase in perceived sweetness [1, 5]: >1.20X
- Sweetener Concentration of positive control surpassed by test sample [1, 6]: > 4.8%
- Fold increase in perceived sweetness ([1]; test sample 5% sucrose, compound 15, 25 ppm): >1.20X
- Sweetener Concentration of positive control surpassed by test sample ([1]; test sample 5% sucrose, positive control sucrose, compound 15, 25 ppm): > 6%
- Fold increase in perceived sweetness ([1]; test sample 6.5% glucose, compound 10, 20, 25 ppm): >1.15X
- Sweetener Concentration of positive control surpassed by test sample ([1]; test sample 6.5% glucose, positive control glucose, compound 10, 20, 25 ppm): > 7.48%
- compound effects beyond the additive effect of inherent sweetness ([3]; pH 3, Table 7 vs Table 5): super-additive effects
- compound effects beyond the additive effect of inherent sweetness ([3]; pH 7, Table 6 vs Table 4): super-additive effects
- perceived sweetness compared to control sweetener solutions (FIG. 2) [3]: significant increase in perceived sweetness
- perceived sweetness compared to control sweetener solutions (FIG. 1) [3]: significant increase in perceived sweetness

SMILES: CCCOc1ccc(C2CC(=O)c3c(O)cc(O)cc3O2)cc1O (centres unmarked) [Compound 5, 5,7-dihydroxy-2-(3-hydroxy-4-propoxyphenyl)chroman-4-one]
- Sweetener Concentration of positive control surpassed by test sample [1, 4]: > 4.4%
